In paper PMC2219267 (The Journal of General Physiology, 1996):

Biological target: T1, band 3 (Homo sapiens, UniProt P02730)
T1 sequence (P02730 1-911): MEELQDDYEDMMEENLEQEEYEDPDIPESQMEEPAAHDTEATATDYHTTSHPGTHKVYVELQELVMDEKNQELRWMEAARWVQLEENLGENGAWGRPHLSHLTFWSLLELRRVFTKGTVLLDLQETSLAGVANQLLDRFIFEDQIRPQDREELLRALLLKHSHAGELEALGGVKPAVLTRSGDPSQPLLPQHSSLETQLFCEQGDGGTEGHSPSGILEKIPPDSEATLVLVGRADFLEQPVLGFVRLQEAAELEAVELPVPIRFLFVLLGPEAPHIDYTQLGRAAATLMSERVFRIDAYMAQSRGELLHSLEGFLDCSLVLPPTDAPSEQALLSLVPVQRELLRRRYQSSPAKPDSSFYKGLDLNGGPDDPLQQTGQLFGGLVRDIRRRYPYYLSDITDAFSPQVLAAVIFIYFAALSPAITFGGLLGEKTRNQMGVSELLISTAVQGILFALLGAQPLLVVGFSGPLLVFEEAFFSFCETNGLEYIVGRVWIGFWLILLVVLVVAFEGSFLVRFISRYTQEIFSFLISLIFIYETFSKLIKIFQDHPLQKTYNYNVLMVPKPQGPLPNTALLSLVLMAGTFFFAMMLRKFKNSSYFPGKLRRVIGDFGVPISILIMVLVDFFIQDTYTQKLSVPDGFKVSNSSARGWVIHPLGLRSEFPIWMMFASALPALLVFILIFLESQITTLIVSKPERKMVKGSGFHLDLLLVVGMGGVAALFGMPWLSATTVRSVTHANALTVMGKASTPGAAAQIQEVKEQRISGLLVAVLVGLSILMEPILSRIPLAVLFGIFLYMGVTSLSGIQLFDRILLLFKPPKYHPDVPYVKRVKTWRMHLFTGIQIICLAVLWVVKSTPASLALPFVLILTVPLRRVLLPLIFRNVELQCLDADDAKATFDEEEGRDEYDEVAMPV
Assay: 36Cl exchange flux inhibition in red blood cells, Dixon plots
Type: cell-based
Details: for ID50 for iodide in the medium with low Cl- concentration: 0°C; for DS·Clo (Dixon slope times [Clo]) / Dixon slope (DS) for Io inhibition of Cl- exchange / High/low: DS·Clo at the highest [Clo] divided by that at the given [Clo]: sucrose

- ID50 for iodide in the medium with low Cl- concentration (exp 60, pHo 7.2, Hepes, Cli 129 mM, low Clo 2.0 mM): 2.77 mM
- DS·Clo (Dixon slope times [Clo]) (exp 60, pHo 7.2, Clo 2 mM): 0.0823
- Dixon slope (DS) for Io inhibition of Cl- exchange (exp 60, pHo 7.2, Clo 2 mM): 0.0412
- High/low: DS·Clo at the highest [Clo] divided by that at the given [Clo] (exp 60, pHo 7.2, Clo 2 mM): 4.69
- DS·Clo (Dixon slope times [Clo]) (exp 60, pHo 7.2, Clo 150 mM): 0.386
- Dixon slope (DS) for Io inhibition of Cl- exchange (exp 60, pHo 7.2, Clo 150 mM): 0.00257
- ID50 for iodide in the medium with low Cl- concentration (exp 60, pHo 10.7, CHES, Cli 129 mM, low Clo 2.0 mM): 12.9 mM
- DS·Clo (Dixon slope times [Clo]) (exp 60, pHo 10.7, Clo 2 mM): 0.1169
- Dixon slope (DS) for Io inhibition of Cl- exchange (exp 60, pHo 10.7, Clo 2 mM): 0.0584
- High/low: DS·Clo at the highest [Clo] divided by that at the given [Clo] (exp 60, pHo 10.7, Clo 2 mM): 1.79
- DS·Clo (Dixon slope times [Clo]) (exp 60, pHo 10.7, Clo 150 mM): 0.2096
- Dixon slope (DS) for Io inhibition of Cl- exchange (exp 60, pHo 10.7, Clo 150 mM): 0.0014
- ID50 for iodide in the medium with low Cl- concentration (exp 60a, pHo 7.2, Hepes, Cli 149 mM, low Clo 1.0 mM): 2.44 mM
- DS·Clo (Dixon slope times [Clo]) (exp 60a, pHo 7.2, Clo 1 mM): 0.0509
- Dixon slope (DS) for Io inhibition of Cl- exchange (exp 60a, pHo 7.2, Clo 1 mM): 0.0509
- High/low: DS·Clo at the highest [Clo] divided by that at the given [Clo] (exp 60a, pHo 7.2, Clo 1 mM): 6.67
- DS·Clo (Dixon slope times [Clo]) (exp 60a, pHo 7.2, Clo 150 mM): 0.339
- Dixon slope (DS) for Io inhibition of Cl- exchange (exp 60a, pHo 7.2, Clo 150 mM): 0.00226
- ID50 for iodide in the medium with low Cl- concentration (exp 60a, pHo 10.7, CHES, Cli 149 mM, low Clo 2.0 mM): 22.6 mM
- DS·Clo (Dixon slope times [Clo]) (exp 60a, pHo 10.7, Clo 2 mM): 0.1078
- Dixon slope (DS) for Io inhibition of Cl- exchange (exp 60a, pHo 10.7, Clo 2 mM): 0.0539
- High/low: DS·Clo at the highest [Clo] divided by that at the given [Clo] (exp 60a, pHo 10.7, Clo 2 mM): 2.13
- DS·Clo (Dixon slope times [Clo]) (exp 60a, pHo 10.7, Clo 150 mM): 0.2300
- Dixon slope (DS) for Io inhibition of Cl- exchange (exp 60a, pHo 10.7, Clo 150 mM): 0.00153
- ID50 for iodide in the medium with low Cl- concentration (exp 61, pHo 11.6, CAPS, Cli 131 mM, low Clo 50 mM): 34.9 mM
- DS·Clo (Dixon slope times [Clo]) (exp 61, pHo 11.6, Clo 50 mM): 0.2858
- Dixon slope (DS) for Io inhibition of Cl- exchange (exp 61, pHo 11.6, Clo 50 mM): 0.00572
- High/low: DS·Clo at the highest [Clo] divided by that at the given [Clo] (exp 61, pHo 11.6, Clo 50 mM): 0.94
- DS·Clo (Dixon slope times [Clo]) (exp 61, pHo 11.6, Clo 150 mM): 0.2682
- Dixon slope (DS) for Io inhibition of Cl- exchange (exp 61, pHo 11.6, Clo 150 mM): 0.00179
- ID50 for iodide in the medium with low Cl- concentration (exp 61a, pHo 11.6, CAPS, Cli 144 mM, low Clo 28 mM): 46.6 mM
- DS·Clo (Dixon slope times [Clo]) (exp 61a, pHo 11.6, Clo 27.5 mM): 0.2089
- Dixon slope (DS) for Io inhibition of Cl- exchange (exp 61a, pHo 11.6, Clo 27.5 mM): 0.0076
- High/low: DS·Clo at the highest [Clo] divided by that at the given [Clo] (exp 61a, pHo 11.6, Clo 27.5 mM): 0.77
- DS·Clo (Dixon slope times [Clo]) (exp 61a, pHo 11.6, Clo I10 mM): 0.1613
- Dixon slope (DS) for Io inhibition of Cl- exchange (exp 61a, pHo 11.6, Clo I10 mM): 0.00147
- ID50 for iodide in the medium with low Cl- concentration (exp 64, pHo 8.66, CHES, Cli 138 mM, low Clo 0.9 mM): 3.06 mM
- ID50 for iodide in the medium with low Cl- concentration (exp 64, pHo 9.9, CHES, Cli 138 mM, low Clo 2.2 mM): 7.48 mM
- ID50 for iodide in the medium with low Cl- concentration (exp 64a, pHo 8.66, CHES, Cli 137 mM, low Clo 0.9 mM): 2.24 mM
- ID50 for iodide in the medium with low Cl- concentration (exp 64a, pHo 9.9, CHES, Cli 137 mM, low Clo 2.2 mM): 7.57 mM
- ID50 for iodide in the medium with low Cl- concentration (exp 67, pHo 8.5, CHES, Cli 144 mM, low Clo 0.6 mM): 2.18 mM
- ID50 for iodide in the medium with low Cl- concentration (exp 70, pHo 7.2, Hepes, Cli 147 mM, low Clo 0.6 mM): 1.47 mM
- DS·Clo (Dixon slope times [Clo]) (exp 70, pHo 7.2, Clo 0.59 mM): 0.0584
- Dixon slope (DS) for Io inhibition of Cl- exchange (exp 70, pHo 7.2, Clo 0.59 mM): 0.0996
- High/low: DS·Clo at the highest [Clo] divided by that at the given [Clo] (exp 70, pHo 7.2, Clo 0.59 mM): 5.52
- DS·Clo (Dixon slope times [Clo]) (exp 70, pHo 7.2, Clo 110 mM): 0.322
- Dixon slope (DS) for Io inhibition of Cl- exchange (exp 70, pHo 7.2, Clo 110 mM): 0.00293
- ID50 for iodide in the medium with low Cl- concentration (exp 70, pHo 8.5, CHES, Cli 147 mM, low Clo 0.6 mM): 1.82 mM
- ID50 for iodide in the medium with low Cl- concentration (exp 72, pHo 8.0, Hepes, Cli 129 mM, low Clo 0.9 mM): 1.82 mM
- ID50 for iodide in the medium with low Cl- concentration (exp 72, pHo 9.2, CHES, Cli 129 mM, low Clo 0.9 mM): 4.19 mM
- ID50 for iodide in the medium with low Cl- concentration (exp 74, pHo 8.5, CHES, Cli 156 mM, low Clo 1.1 mM): 2.10 mM
- ID50 for iodide in the medium with low Cl- concentration (exp 80, pHo 9.2, CHES, Cli 142 mM, low Clo 0.9 mM): 3.88 mM
- ID50 for iodide in the medium with low Cl- concentration (exp 81, pHo 8.5, Hepes, Cli 142 mM, low Clo 0.6 mM): 2.31 mM
- ID50 for iodide in the medium with low Cl- concentration (exp 81, pHo 10, CHES, Cli 142 mM, low Clo 1.7 mM): 7.81 mM
- ID50 for iodide in the medium with low Cl- concentration (exp 82, pHo 10, CHES, Cli 138 mM, low Clo 1.7 mM): 9.85 mM
- ID50 for iodide in the medium with low Cl- concentration (exp 82, pHo 10.6, CHES, Cli 138 mM, low Clo 1.7 mM): 19.8 mM
- ID50 for iodide in the medium with low Cl- concentration (exp 83, pHo 10, CHES, Cli 129 mM, low Clo 1.7 mM): 6.58 mM
SMILES: [I-].[K+] [iodide, potassium iodide]
